Measured values taken from patent US12629468B2, “Devices and methods for delivering synergistic active agents to target sites” (IRRIMAX Corporation, priority 2023, dated 2026).
Like-named read-outs stand apart in the source and are kept apart here.

Legend:
Format in all cases: cell-based
[1] = test system: P. aeruginosa (ATCC 15442); assay: Minimum inhibitory concentration / growth inhibition by serial 2-fold dilution; settings: for Average Growth Inhibition (%): average of triplicate
Procedure: (§1) The minimal inhibitory concentration (MIC, the minimum inhibitory concentration required for 90% growth reduction) of ethyl lauroyl arginate hydrochloride was determined against S. aureus (ATCC 6538), P. aeruginosa (ATCC 15442), and E. coli (ATCC BAA 1427) by serial 2-fold dilution experiments. A solution of chlorhexidine (0.025% w/w) was used as a positive control and comparator.

E. coli (ATCC BAA 1427) [2] = assay: as above; settings: for Average Growth Inhibition (%): average of triplicate
Procedure: as §1

S. aureus (ATCC 6538) [3] = assay: as above; settings: for Average Growth Inhibition (%): average of triplicate
Procedure: as §1

[4] = test system: P. aeruginosa (ATCC 15442); assay: Minimal bactericidal concentration by serial 2-fold dilution
Procedure: (§2) The minimal bactericidal concentration (MBC) of ethyl lauroyl arginate hydrochloride (LAE) was determined against S. aureus (ATCC 6538), P. aeruginosa (ATCC 15442), and E. coli (ATCC BAA 1427) by serial 2-fold dilution experiments. A solution of chlorhexidine (0.025% w/w) was used as a positive control and comparator.

E. coli (ATCC BAA 1427) [5] = assay: as above
Procedure: as §2

S. aureus (ATCC 6538) [6] = assay: as above
Procedure: as §2

P. aeruginosa = assay: Chequerboard assay, FIC and synergy analysis; settings: for MIC: Pseudomonas aeruginosa
Procedure: (§3) Chlorhexidine gluconate (CHG) and ethyl lauroyl arginate hydrochloride (LAE) were analyzed by chequerboard assay with each test organism to determine potential additive, synergistic, and antagonistic activity. The test organisms S. aureus, P. aeruginosa, and E. coli were tested at ranges of chlorhexidine gluconate (0.122-15.625 μg/mL, 1.25-160 μg/mL, and 0.125-16 μg/mL, respectively) and ethyl lauroyl arginate hydrochloride (LAE) (0.117-15 μg/mL, 0.4688-60 μg/mL, and 0.2344-30 μg/mL, respectively). FIC was calculated by the following Equation 2: […]

S. aureus = assay: Chequerboard assay, FIC and synergy analysis; settings: for MIC: Staphylococcus aureus
Procedure: as §3

E. coli = assay: Chequerboard assay, FIC and synergy analysis; settings: for MIC: Escherichia coli
Procedure: as §3

[7] = inhibited greater than 90% growth
[8] = 0.46875 μg/mL, average over triplicate
[9] = 0.9375 μg/mL, average over triplicate
[10] = 1.875 μg/mL, average over triplicate
[11] = 3.75 μg/mL, average over triplicate
[12] = 7.5 μg/mL, average over triplicate
[13] = 15 μg/mL, average over triplicate
[14] = 30 μg/mL, average over triplicate
[15] = 60 μg/mL, average over triplicate
[16] = defined as having less than 500 CFU/mL, hydrochloride
[17] = 250 μg/mL (0.025% w/w), positive control
[18] = 250 μg/mL (0.025% w/w), positive control, listed as chlorhexidine
[19] = read-out: MIC of CHG in Presence of LAE

## CCCCCCCCCCCC(=O)N[C@@H](CCCN=C(N)N)C(=O)OCC.Cl [ethyl lauroyl arginate hydrochloride]
[1]; 0.46875 μg/mL
  Average Growth Inhibition (%): 2%
[1]; 0.9375 μg/mL
  Average Growth Inhibition (%): 2%
[1]; 1.875 μg/mL
  Average Growth Inhibition (%): 2%
[1]; 3.75 μg/mL
  Average Growth Inhibition (%): 4%
[1]; 7.5 μg/mL
  Average Growth Inhibition (%): 5%
[1]; 15 μg/mL
  Average Growth Inhibition (%): 2%
[1]; 30 μg/mL
  Average Growth Inhibition (%): 100%
[1]; 60 μg/mL
  Average Growth Inhibition (%): 99%
[1]; [7]
  MIC: 30 µg/mL
E. coli (ATCC BAA 1427) [2]; 0.46875 μg/mL
  Average Growth Inhibition (%): 3%
E. coli (ATCC BAA 1427) [2]; 0.9375 μg/mL
  Average Growth Inhibition (%): 6%
E. coli (ATCC BAA 1427) [2]; 1.875 μg/mL
  Average Growth Inhibition (%): 5%
E. coli (ATCC BAA 1427) [2]; 3.75 μg/mL
  Average Growth Inhibition (%): 4%
E. coli (ATCC BAA 1427) [2]; 7.5 μg/mL
  Average Growth Inhibition (%): 4%
E. coli (ATCC BAA 1427) [2]; 15 μg/mL
  Average Growth Inhibition (%): 100%
E. coli (ATCC BAA 1427) [2]; 30 μg/mL
  Average Growth Inhibition (%): 100%
E. coli (ATCC BAA 1427) [2]; 60 μg/mL
  Average Growth Inhibition (%): 99%
S. aureus (ATCC 6538) [3]; 0.46875 μg/mL
  Average Growth Inhibition (%): 7%
S. aureus (ATCC 6538) [3]; 0.9375 μg/mL
  Average Growth Inhibition (%): -1%
S. aureus (ATCC 6538) [3]; 1.875 μg/mL
  Average Growth Inhibition (%): -17%
S. aureus (ATCC 6538) [3]; 3.75 μg/mL
  Average Growth Inhibition (%): 100%
S. aureus (ATCC 6538) [3]; 7.5 μg/mL
  Average Growth Inhibition (%): 101%
S. aureus (ATCC 6538) [3]; 15 μg/mL
  Average Growth Inhibition (%): 101%
S. aureus (ATCC 6538) [3]; 30 μg/mL
  Average Growth Inhibition (%): 97%
S. aureus (ATCC 6538) [3]; 60 μg/mL
  Average Growth Inhibition (%): 93%
S. aureus (ATCC 6538) [3]; [7]
  MIC: 3.75 µg/mL
[4]; 0.46875 μg/mL
  CFU/mL: Lawn
[4]; [8]
  Number of Colonies: Lawn (‘Lawn’ indicates too many colonies to accurately count (e.g., greater than 250 colonies on an agar plate))
[4]; 0.9375 μg/mL
  CFU/mL: Lawn
[4]; [9]
  Number of Colonies: Lawn (‘Lawn’ indicates too many colonies to accurately count (e.g., greater than 250 colonies on an agar plate))
[4]; 1.875 μg/mL
  CFU/mL: Lawn
[4]; [10]
  Number of Colonies: Lawn (‘Lawn’ indicates too many colonies to accurately count (e.g., greater than 250 colonies on an agar plate))
[4]; 3.75 μg/mL
  CFU/mL: Lawn
[4]; [11]
  Number of Colonies: Lawn (‘Lawn’ indicates too many colonies to accurately count (e.g., greater than 250 colonies on an agar plate))
[4]; 7.5 μg/mL
  CFU/mL: Lawn
[4]; [12]
  Number of Colonies: Lawn (‘Lawn’ indicates too many colonies to accurately count (e.g., greater than 250 colonies on an agar plate))
[4]; 15 μg/mL
  CFU/mL: Lawn
[4]; [13]
  Number of Colonies: Lawn (‘Lawn’ indicates too many colonies to accurately count (e.g., greater than 250 colonies on an agar plate))
[4]; 30 μg/mL
  CFU/mL: 0 CFU/mL
[4]; [14]
  Number of Colonies: 0
[4]; 60 μg/mL
  CFU/mL: 0 CFU/mL
[4]; [15]
  Number of Colonies: 0
[4]; [16]
  MBC: 30 µg/mL
E. coli (ATCC BAA 1427) [5]; 0.46875 μg/mL
  CFU/mL: Lawn
E. coli (ATCC BAA 1427) [5]; [8]
  Number of Colonies: Lawn (‘Lawn’ indicates too many colonies to accurately count (e.g., greater than 250 colonies on an agar plate))
E. coli (ATCC BAA 1427) [5]; 0.9375 μg/mL
  CFU/mL: Lawn
E. coli (ATCC BAA 1427) [5]; [9]
  Number of Colonies: Lawn (‘Lawn’ indicates too many colonies to accurately count (e.g., greater than 250 colonies on an agar plate))
E. coli (ATCC BAA 1427) [5]; 1.875 μg/mL
  CFU/mL: Lawn
E. coli (ATCC BAA 1427) [5]; [10]
  Number of Colonies: Lawn (‘Lawn’ indicates too many colonies to accurately count (e.g., greater than 250 colonies on an agar plate))
E. coli (ATCC BAA 1427) [5]; 3.75 μg/mL
  CFU/mL: Lawn
E. coli (ATCC BAA 1427) [5]; [11]
  Number of Colonies: Lawn (‘Lawn’ indicates too many colonies to accurately count (e.g., greater than 250 colonies on an agar plate))
E. coli (ATCC BAA 1427) [5]; 7.5 μg/mL
  CFU/mL: Lawn
E. coli (ATCC BAA 1427) [5]; [12]
  Number of Colonies: Lawn (‘Lawn’ indicates too many colonies to accurately count (e.g., greater than 250 colonies on an agar plate))
E. coli (ATCC BAA 1427) [5]; 15 μg/mL
  CFU/mL: 0 CFU/mL
E. coli (ATCC BAA 1427) [5]; [13]
  Number of Colonies: 0
E. coli (ATCC BAA 1427) [5]; 30 μg/mL
  CFU/mL: 0 CFU/mL
E. coli (ATCC BAA 1427) [5]; [14]
  Number of Colonies: 0
E. coli (ATCC BAA 1427) [5]; 60 μg/mL
  CFU/mL: 0 CFU/mL
E. coli (ATCC BAA 1427) [5]; [15]
  Number of Colonies: 0
E. coli (ATCC BAA 1427) [5]; [16]
  MBC: 15 µg/mL
S. aureus (ATCC 6538) [6]; 0.46875 μg/mL
  CFU/mL: Lawn
S. aureus (ATCC 6538) [6]; [8]
  Number of Colonies: Lawn (‘Lawn’ indicates too many colonies to accurately count (e.g., greater than 250 colonies on an agar plate))
S. aureus (ATCC 6538) [6]; 0.9375 μg/mL
  CFU/mL: Lawn
S. aureus (ATCC 6538) [6]; [9]
  Number of Colonies: Lawn (‘Lawn’ indicates too many colonies to accurately count (e.g., greater than 250 colonies on an agar plate))
S. aureus (ATCC 6538) [6]; 1.875 μg/mL
  CFU/mL: Lawn
S. aureus (ATCC 6538) [6]; [10]
  Number of Colonies: Lawn (‘Lawn’ indicates too many colonies to accurately count (e.g., greater than 250 colonies on an agar plate))
S. aureus (ATCC 6538) [6]; 3.75 μg/mL
  CFU/mL: 500 CFU/mL
S. aureus (ATCC 6538) [6]; [11]
  Number of Colonies: 5
S. aureus (ATCC 6538) [6]; 7.5 μg/mL
  CFU/mL: 0 CFU/mL
S. aureus (ATCC 6538) [6]; [12]
  Number of Colonies: 0
S. aureus (ATCC 6538) [6]; 15 μg/mL
  CFU/mL: 0 CFU/mL
S. aureus (ATCC 6538) [6]; [13]
  Number of Colonies: 0
S. aureus (ATCC 6538) [6]; 30 μg/mL
  CFU/mL: 0 CFU/mL
S. aureus (ATCC 6538) [6]; [14]
  Number of Colonies: 0
S. aureus (ATCC 6538) [6]; 60 μg/mL
  CFU/mL: 0 CFU/mL
S. aureus (ATCC 6538) [6]; [15]
  Number of Colonies: 0
S. aureus (ATCC 6538) [6]; [16]
  MBC: 3.75 µg/mL
P. aeruginosa; alone
  MIC of LAE Alone: 30 µg/mL
P. aeruginosa; in presence of CHG
  MIC of LAE in Presence of CHG: 7.5 µg/mL
S. aureus; alone
  MIC of LAE Alone: 3.75 µg/mL
S. aureus; in presence of CHG
  MIC of LAE in Presence of CHG: 1.875 µg/mL
E. coli; alone
  MIC of LAE Alone: 15 µg/mL
E. coli; in presence of CHG
  MIC of LAE in Presence of CHG: 3.75 µg/mL

## N=C(NCCCCCCNC(=N)NC(=N)Nc1ccc(Cl)cc1)NC(=N)Nc1ccc(Cl)cc1 [Chlorhexidine gluconate, reference compound]
[1]; Pseudomonas aeruginosa, ATCC15442, read-out: Average Growth Inhibition (%)
  inhibition at 250 µg/mL: 81%
E. coli (ATCC BAA 1427) [2]; Escherichia coli, BAA1427, 250 μg/mL (0.025% w/w), positive control
  inhibition at 250 µg/mL: 63%
S. aureus (ATCC 6538) [3]; Staphylococcus aureus, ATCC6538, read-out: Average Growth Inhibition (%)
  inhibition at 250 µg/mL: 121%
[4]; [17]
  CFU/mL: 0 CFU/mL
  Number of Colonies: 0
[4]; [18]
  Number of Colonies: no colonies
E. coli (ATCC BAA 1427) [5]; [17]
  CFU/mL: 0 CFU/mL
  Number of Colonies: 0
E. coli (ATCC BAA 1427) [5]; [18]
  Number of Colonies: no colonies
S. aureus (ATCC 6538) [6]; [17]
  CFU/mL: 0 CFU/mL
  Number of Colonies: 0
S. aureus (ATCC 6538) [6]; [18]
  Number of Colonies: no colonies
P. aeruginosa; read-out: MIC of CHG Alone
  MIC: 40 µg/mL
P. aeruginosa; [19]
  MIC: 10 µg/mL
S. aureus; read-out: MIC of CHG Alone
  MIC: 1.95 µg/mL
S. aureus; [19]
  MIC: 0.977 µg/mL
E. coli; read-out: MIC of CHG Alone
  MIC: 8 µg/mL
E. coli; [19]
  MIC: 4 µg/mL
